Assay results published in US9802927B2, “Oxadiazine compounds and methods of use thereof” (Denali Therapeutics, Inc., priority 2015, dated 2017).

Test system: Aβ42
Experiment: In vitro cell screening assay in H4 cells expressing human APP751: Aβ42 by sandwich ELISA
Type: cell-based
Conditions: compounds 0.003-10 μM, incubated overnight (16-18 h), sandwich ELISA of supernatant
In short: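 Secreted Aβ42 measured by sandwich ELISA, C-terminal-specific capture and 4G8-HRP detection, TMB read at 450 nm, from supernatants of APP751-expressing H4 cells exposed overnight (16-18 h) to 0.003-10 μM compound in Pro293 medium, 0.33% DMSO. Data scaled between DMSO and DAPT controls; EC50 from variable-slope nonlinear regression.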

## COc1nc(C2=NOCC(c3ccc(Cl)c(C)c3)N2)ccc1-n1cnc(C)c1 (single isomer, unassigned; (+)) [Example 86B, (+)-5-(4-chloro-3-methylphenyl)-3-(6-methoxy-5-(4-methyl-1H-imidazol-1-yl)pyridin-2-yl)-5,6-dihydro-4H-1,2,4-oxadiazine]
  EC50: 10.4 nM

## COc1nc(C2=NOCC(c3cn(C)c4ncc(C5CC5)cc34)N2)ccc1-n1cnc(C)c1 (single isomer, unassigned; (+)) [Example 266B, (+)-5-(5-cyclopropyl-1-methyl-1H-pyrrolo[2,3-b]pyridin-3-yl)-3-(6-methoxy-5-(4-methyl-1H-imidazol-1-yl)pyridin-2-yl)-5,6-dihydro-4H-1,2,4-oxadiazine]
  EC50: 15.5 nM

## COc1ccc(C2CON=C(c3ccc(-n4cnc(C)c4)c(OC)n3)N2)cc1 (single isomer, unassigned; (-)) [Example 54A, (−)-3-(6-methoxy-5-(4-methyl-1H-imidazol-1-yl)pyridin-2-yl)-5-(4-methoxyphenyl)-5,6-dihydro-4H-1,2,4-oxadiazine]
  EC50: > 3000 nM
